In patent publication US12264156B2, “Compounds and pharmaceutical compositions thereof for the treatment of diseases” (GALAPAGOS NV, priority 2018, dated 2025):

What was measured:
SIK1 = target: T1, SIK1 (Homo sapiens, UniProt P57059); test: ADP-Glo kinase assay, SIK1; assay type: biochemical; details: ADP-Glo SIK kinase assay
T1 construct: purchased Carna Biosciences 02-131
How it was run: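 Enzyme–substrate mix was started with ATP and incubated 120 min at RT. ADP formed was quantified by ADP-Glo: 40 min ATP depletion, then 30 min detection reagent converting ADP to ATP for luciferase luminescence, which rises with kinase activity. Controls: 1% DMSO and 10 μM staurosporine (final).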

SIK2 = target: T2, SIK2 (Homo sapiens, UniProt Q9H0K1); test: ADP-Glo kinase assay, SIK2; assay type: biochemical; details: ADP-Glo SIK kinase assay
T2 construct: purchased ThermoFisher Scientific PV4792
T2 sequence (Q9H0K1 whole entry): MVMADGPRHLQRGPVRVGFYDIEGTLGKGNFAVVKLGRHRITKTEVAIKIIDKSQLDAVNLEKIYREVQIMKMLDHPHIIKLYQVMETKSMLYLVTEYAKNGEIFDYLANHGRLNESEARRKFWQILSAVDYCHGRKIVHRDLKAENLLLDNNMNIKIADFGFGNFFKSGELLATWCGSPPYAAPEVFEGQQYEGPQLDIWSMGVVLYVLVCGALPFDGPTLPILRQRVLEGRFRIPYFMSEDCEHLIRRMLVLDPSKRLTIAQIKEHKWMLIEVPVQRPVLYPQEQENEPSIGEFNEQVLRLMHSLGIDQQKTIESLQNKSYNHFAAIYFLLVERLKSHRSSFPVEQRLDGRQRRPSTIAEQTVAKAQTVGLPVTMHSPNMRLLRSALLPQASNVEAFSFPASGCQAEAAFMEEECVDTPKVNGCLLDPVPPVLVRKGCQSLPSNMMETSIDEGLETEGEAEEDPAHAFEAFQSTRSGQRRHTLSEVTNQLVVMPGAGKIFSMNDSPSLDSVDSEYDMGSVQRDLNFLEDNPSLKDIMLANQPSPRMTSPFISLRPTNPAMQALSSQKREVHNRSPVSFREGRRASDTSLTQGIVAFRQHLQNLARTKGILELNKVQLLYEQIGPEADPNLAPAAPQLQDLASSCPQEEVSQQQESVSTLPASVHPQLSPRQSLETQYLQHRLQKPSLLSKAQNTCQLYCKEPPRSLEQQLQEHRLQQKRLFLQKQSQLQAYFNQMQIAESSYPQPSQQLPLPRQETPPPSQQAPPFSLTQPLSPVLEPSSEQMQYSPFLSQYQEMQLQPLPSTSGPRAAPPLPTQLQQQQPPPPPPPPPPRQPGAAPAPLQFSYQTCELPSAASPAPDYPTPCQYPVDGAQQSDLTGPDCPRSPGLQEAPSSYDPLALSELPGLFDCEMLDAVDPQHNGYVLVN
How it was run: (§1)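 ADP-Glo luminescent assay of ADP formed by SIK2 or SIK3 with substrate after ATP addition, 120 min at RT. Remaining ATP depleted 40 min, then ADP converted to ATP and read by luciferase luminescence after 30 min. Controls: 1% DMSO and 10 μM staurosporine (final).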

SIK3 = target: T3, SIK3 (Homo sapiens, UniProt Q9Y2K2); test: ADP-Glo kinase assay, SIK3; assay type: biochemical; details: ADP-Glo SIK kinase assay
T3 construct: purchased SignalChem S12-11G-100
T3 sequence (Q9Y2K2 whole entry): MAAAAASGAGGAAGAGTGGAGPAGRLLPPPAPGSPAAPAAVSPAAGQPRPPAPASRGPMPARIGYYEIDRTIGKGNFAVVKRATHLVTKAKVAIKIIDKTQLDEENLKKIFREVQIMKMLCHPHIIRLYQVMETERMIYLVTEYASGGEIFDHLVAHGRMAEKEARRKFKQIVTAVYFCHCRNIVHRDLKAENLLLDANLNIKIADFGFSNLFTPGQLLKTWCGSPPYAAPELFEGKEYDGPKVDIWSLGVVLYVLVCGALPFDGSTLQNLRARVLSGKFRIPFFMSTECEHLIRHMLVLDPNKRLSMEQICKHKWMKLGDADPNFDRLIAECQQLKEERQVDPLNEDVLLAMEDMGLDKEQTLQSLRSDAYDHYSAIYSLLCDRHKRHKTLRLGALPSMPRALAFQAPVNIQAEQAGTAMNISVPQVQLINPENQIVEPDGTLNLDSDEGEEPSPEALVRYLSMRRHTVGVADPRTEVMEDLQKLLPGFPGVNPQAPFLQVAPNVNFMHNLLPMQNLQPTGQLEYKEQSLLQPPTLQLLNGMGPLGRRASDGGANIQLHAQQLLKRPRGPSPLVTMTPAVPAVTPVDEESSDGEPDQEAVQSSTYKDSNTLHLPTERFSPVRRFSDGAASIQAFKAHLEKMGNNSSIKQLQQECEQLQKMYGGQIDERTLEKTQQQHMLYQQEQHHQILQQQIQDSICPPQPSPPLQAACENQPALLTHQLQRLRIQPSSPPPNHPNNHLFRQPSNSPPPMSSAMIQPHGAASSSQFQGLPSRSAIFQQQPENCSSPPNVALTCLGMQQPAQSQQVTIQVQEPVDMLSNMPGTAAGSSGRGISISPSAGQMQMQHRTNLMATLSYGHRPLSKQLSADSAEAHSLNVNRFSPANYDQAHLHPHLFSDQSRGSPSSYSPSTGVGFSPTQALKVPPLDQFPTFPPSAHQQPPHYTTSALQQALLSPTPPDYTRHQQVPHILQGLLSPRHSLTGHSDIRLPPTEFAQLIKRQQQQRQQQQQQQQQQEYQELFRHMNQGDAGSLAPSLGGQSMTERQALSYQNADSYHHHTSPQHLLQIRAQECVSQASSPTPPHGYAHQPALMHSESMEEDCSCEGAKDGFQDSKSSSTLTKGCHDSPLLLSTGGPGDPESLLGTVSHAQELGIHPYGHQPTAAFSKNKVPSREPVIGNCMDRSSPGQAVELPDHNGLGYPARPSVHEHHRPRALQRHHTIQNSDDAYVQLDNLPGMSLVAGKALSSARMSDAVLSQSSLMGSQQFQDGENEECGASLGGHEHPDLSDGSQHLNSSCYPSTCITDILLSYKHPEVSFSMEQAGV
How it was run: as §1

[1] = test system: LPS-induced TNFα in monocytes; test: Monocytes assay: LPS-triggered TNFα (ELISA); assay type: cell-based, human; details: Homo sapiens, Monocyte, LPS 200 ng/mL, supernatant after 4 h
Experimental: (§2) SIK inhibition inhibits TNFα and increases IL-10 release in LPS triggered monocyte-derived macrophages (MdM) and dendritic cells (MdDCs) (Clark et al. 2012; Sundberg et al. 2014; Ozanne et al. 2015). This assay evaluates illustrative compounds of the invention for their inhibition of LPS-induced TNFα and LPS triggered IL-10 secretion in monocytes.
(§3) PBMCs are isolated from human blood samples (buffycoats). The buffy coat is aseptically transferred into a 50 mL Falcon tube, and diluted 1/2 in PBS. Falcon tubes are filled with 20 mL Lymphoprep™, on top of which 25 mL of the buffy coat is carefully added, tubes are centrifuged for 35 min at 400 g in temperature controlled centrifuge, without brake, at 25° C. PBMCs are aspirated from the white interface layer between sample and Lymphoprep™. PBMCs are washed five times in PBS. Cells are resuspended in RPMI 1640 complete medium supplemented with 10% FBS, 1% P/S, and cell density is determined using a hematologic analyzer (Sysmex XS-500i).
(§4) PBMCs are centrifuged at 300×g for 10 min and resuspended at a density of 1.0*10^7 cells/80 μL Miltenyi buffer (PBS, pH 7.4, 1% FBS, 2 mM EDTA).
(§5) Starting from this point of the protocol all steps are performed on ice. 20 μL of CD14+ micro-beads are added per 1.0*10^7 cells, the tube is mixed and incubated for 15 min in the fridge at 4° C. Cell suspension volume is adjusted to total volume of 100 mL using Miltenyi buffer, mixed gently and subsequently centrifuged for 10 min at 300×g. Supernantant is discarded and cell pellet is resuspended in 12 mL of Miltenyi buffer.
(§6) Four LS columns are placed in the MACS Separator (magnet) from Miltenyi Biotec, and are prewet by rinsing with 3 mL of MACS buffer per column. Three mL of cell suspension is added onto the column (max 1*10^8 of labelled cells/column), and columns are subsequently washed 3 times with 3 mL of Miltenyi buffer.
(§7) The columns are removed from the magnets, and 5 mL of Miltenyi buffer are added to the column to flush out the CD14+ fraction by pushing the plunger into the column. The flushed fractions are collected in a fresh 50 mL Falcon and volume is adjusted to 30 mL using Miltenyi buffer, cells are centrifuged for 10 min at 300×g. The obtained cell pellet is resuspended in 10 mL RPMI w/o FBS, and cell density is determined using a hematologic analyser (Sysmex XS-500i). 100 000 cells are seeded in 80 μL per well of a 96-well plate in RPMI 1640 medium supplemented with 10% FBS, 1% P/S.
(§8) A compound dilution plate is made in 100% DMSO by 3-fold dilution of 10 mM stock solution. An intermediate dilution plate (10× final concentration) is made by diluting the compound dilution plate 50-fold in RPMI medium.
(§9) 10 μL of the 10× final concentration compound is added to the cells and incubated for 1 h at 37° C. before addition of trigger. No trigger conditions/trigger conditions are spiked with equal final DMSO concentrations of 0.2% DMSO. 10 μL of 10×LPS (final conc. 200 ng/mL) solution are added to all wells except for the ‘no trigger wells’ where 10 μL medium is added. Supernatant is collected after 4 h of LPS triggering.
A Lumitrac 600 Greiner 384-well plate is coated with 40 μL of capture antibody (BD Pharmingen, Cat #551220) reaching a final concentration of 1 μg/mL in 1×PBS and stored overnight at 4° C.
The plate is then washed once with PBST (PBS+0.05% Tween20) and once with PBS followed by the addition of 100 μL of blocking buffer (1% Bovine Serum Albumin (BSA)−5% Sucrose) and plates are sealed and incubated for at least 4 h at RT. After washing the plate once with PBST and once with PBS, […]. Plates are washed twice with PBST, and once with PBS, after which 35 μL of the detection antibody is added (final concentration 0.25 μg/mL diluted in dilution buffer) and plates are incubated for at least 2 h at RT. […]

[2] = test system: LPS triggered IL-10 secretion in monocytes; test: Monocytes assay: LPS-triggered IL-10 (ELISA); assay type: cell-based, human; details: LPS 200 ng/mL, supernatant after 4 h, maximal fold change vs LPS only
Experimental: as §2, §3, §4, §5, §6, §7, §8, §9
A Lumitrac 600 Greiner 384-well plate is coated with 40 μL of capture antibody (final concentration of 1 μg/mL in 1×PBS) and stored overnight at 4° C. The next day the plate is washed three times with PBST (PBS+0.05% Tween20) and once with PBS followed by the addition of 100 μL of blocking buffer (1% BSA−5% Sucrose) and plates are sealed and incubated for at least 4 h at RT. After washing the plate once with PBST and once with PBS, 40 μL of standard or sample are added (IL-10 standard curve is prepared using a 1/2 serial dilution starting from […]; dilutions are made in dilution buffer (PBS+1% BSA)). Plates are washed twice with PBST, and once with PBS, after which 35 μL of the detection antibody is added (final concentration 0.143 μg/mL diluted in dilution buffer) and plates are incubated for at least 2 h at RT. […]

T1 sequence (P57059 whole entry): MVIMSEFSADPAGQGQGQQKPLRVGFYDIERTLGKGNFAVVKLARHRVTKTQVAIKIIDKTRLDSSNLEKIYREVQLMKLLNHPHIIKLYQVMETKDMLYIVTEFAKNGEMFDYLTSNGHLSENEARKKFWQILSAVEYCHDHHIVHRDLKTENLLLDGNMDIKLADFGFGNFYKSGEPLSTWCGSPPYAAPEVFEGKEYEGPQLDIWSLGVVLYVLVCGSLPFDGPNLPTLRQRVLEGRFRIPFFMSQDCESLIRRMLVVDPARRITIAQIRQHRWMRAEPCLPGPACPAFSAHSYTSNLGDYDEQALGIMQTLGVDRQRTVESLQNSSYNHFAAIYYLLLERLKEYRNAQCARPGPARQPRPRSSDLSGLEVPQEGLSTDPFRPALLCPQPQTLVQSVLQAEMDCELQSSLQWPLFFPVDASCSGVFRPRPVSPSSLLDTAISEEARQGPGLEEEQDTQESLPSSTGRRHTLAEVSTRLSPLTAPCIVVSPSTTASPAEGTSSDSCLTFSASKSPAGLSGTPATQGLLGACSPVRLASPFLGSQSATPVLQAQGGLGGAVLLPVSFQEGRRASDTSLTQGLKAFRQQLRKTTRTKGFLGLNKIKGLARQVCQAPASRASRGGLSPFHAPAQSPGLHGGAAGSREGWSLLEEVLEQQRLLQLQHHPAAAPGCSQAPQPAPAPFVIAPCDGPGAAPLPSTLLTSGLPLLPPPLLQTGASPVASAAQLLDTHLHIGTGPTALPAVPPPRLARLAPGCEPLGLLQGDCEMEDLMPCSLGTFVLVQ

| IC50 (SIK1) [nM] | IC50 (SIK2) [nM] | IC50 (SIK3) [nM] | EC50 ([1]; 4 h) [nM] | SMILES | IL-10 FCmax median [2] | EC50 [1] [nM] |
| --- | --- | --- | --- | --- | --- | --- |
| 0.01 to 10 | 0.01 to 10 | 0.01 to 10 | 0.1 to 100 | COc1cc(-c2cnc3cc(OCC4CCCN(C(C)C)C4)ccn23)cc(OC(F)F)c1C(=O)NC1CC1 (centres unmarked) [compound 280, N-cyclopropyl-2-(difluoromethoxy)-4-[7-[(1-isopropyl-3-piperidyl)methoxy]imidazo [1,2-a]pyridin-3-yl]-6-methoxy-benzamide] | ++ (>1.5-4.5) | – |
| 0.01 to 10 | 0.01 to 10 | 0.01 to 10 | 0.1 to 100 | COc1cc(-c2cnc3cc(OCCCN4CCOCC45CCC5)ccn23)cc(OC(F)F)c1C(=O)NC1CC1 [compound 281, N-cyclopropyl-2-(difluoromethoxy)-6-methoxy-4-[7-[3-(8-oxa-5-azaspiro[3.5]nonan-5-yl)propoxy]imidazo[1,2-a]pyridin-3-yl]benzamide] | +++ (>4.5) | – |
| 10 to 100 | 10 to 100 | 0.01 to 10 | 100 to 1000 | COc1cc(-c2cnc3cc(OCC4COCCN4C(C)C)ccn23)cc(OC(F)F)c1C(=O)NC1CC1 (centres unmarked) [compound 283, N-cyclopropyl-2-(difluoromethoxy)-4-[7-[(4-isopropylmorpholin-3-yl)methoxy]imidazo[1,2-a]pyridin-3-yl]-6-methoxy-benzamide] | +++ (>4.5) | – |
| 0.01 to 10 | 0.01 to 10 | 0.01 to 10 | 0.1 to 100 | COc1cc(-c2cnc3cc(OCCCN4CC5CC4CO5)ccn23)cc(OC(F)F)c1C(=O)NC1CC1 (centres unmarked) [compound 284, N-cyclopropyl-2-(difluoromethoxy)-6-methoxy-4-[7-[3-(2-oxa-5-azabicyclo[2.2.1]heptan-5-yl)propoxy]imidazo[1,2-a]pyridin-3-yl]benzamide] | ++ (>1.5-4.5) | – |
| 10 to 100 | 0.01 to 10 | 0.01 to 10 | 100 to 1000 | COc1cc(-c2cnc3cc(OCCCN4CCC5(COC5)C4)ccn23)cc(OC(F)F)c1C(=O)NC1CC1 [compound 285, N-cyclopropyl-2-(difluoromethoxy)-6-methoxy-4-[7-[3-(2-oxa-7-azaspiro[3.4]octan-7-yl)propoxy]imidazo[1,2-a]pyridin-3-yl]benzamide] | +++ (>4.5) | – |
| 10 to 100 | 0.01 to 10 | 0.01 to 10 | 0.1 to 100 | COc1cc(-c2cnc3cc(OCCCN4C(C)CCCC4C)ccn23)cc(OC(F)F)c1C(=O)NC1CC1 (centres unmarked) [compound 290, N-cyclopropyl-2-(difluoromethoxy)-4-[7-[3-(2,6-dimethyl-1-piperidyl)propoxy]imidazo [1,2-a]pyridin-3-yl]-6-methoxy-benzamide] | +++ (>4.5) | – |
| 10 to 100 | 0.01 to 10 | 0.01 to 10 | 0.1 to 100 | COc1cc(-c2cnc3cc(OCCCN4CC5CCC(C4)O5)ccn23)cc(OC(F)F)c1C(=O)NC1CC1 [compound 291, N-cyclopropyl-2-(difluoromethoxy)-6-methoxy-4-[7-[3-(8-oxa-3-azabicyclo[3.2.1]octan-3-yl)propoxy]imidazo[1,2-a]pyridin-3-yl]benzamide] | +++ (>4.5) | – |
| 10 to 100 | 0.01 to 10 | 0.01 to 10 | 0.1 to 100 | COc1cc(-c2cnc3cc(OCCCN4CC5(CCC5)C4)ccn23)cc(OC(F)F)c1C(=O)NC1CC1 [compound 293, 4-[7-[3-(2-azaspiro[3.3]heptan-2-yl)propoxy]imidazo[1,2-a]pyridin-3-yl]-N-cyclopropyl-2-(difluoromethoxy)-6-methoxy-benzamide] | +++ (>4.5) | – |
| 10 to 100 | 0.01 to 10 | 0.01 to 10 | 100 to 1000 | COc1cc(-c2cnc3cc(OCCOCCN4CCN(C(C)C)CC4)ccn23)cc(OC(F)F)c1C(=O)NC1CC1 [compound 298, N-cyclopropyl-2-(difluoromethoxy)-4-[7-[2-[2-(4-isopropylpiperazin-1-yl)ethoxy]ethoxy]imidazo [1,2-a]pyridin-3-yl]-6-methoxy-benzamide] | +++ (>4.5) | – |
| 10 to 100 | 0.01 to 10 | 0.01 to 10 | 0.1 to 100 | COc1cc(-c2cnc3cc(OCCC4CCCN4C4COC4)ccn23)cc(OC(F)F)c1C(=O)NC1CC1 (centres unmarked) [compound 299, N-cyclopropyl-2-(difluoromethoxy)-6-methoxy-4-[7-[2-[1-(oxetan-3-yl)pyrrolidin-2-yl]ethoxy]imidazo[1,2-a]pyridin-3-yl]benzamide] | +++ (>4.5) | – |
| 10 to 100 | 0.01 to 10 | 0.01 to 10 | 0.1 to 100 | COc1cc(-c2cnc3cc(OCCCN4CCC45COC5)ccn23)cc(OC(F)F)c1C(=O)NC1CC1 [compound 300, N-cyclopropyl-2-(difluoromethoxy)-6-methoxy-4-[7-[3-(6-oxa-1-azaspiro[3.3]heptan-1-yl)propoxy]imidazo[1,2-a]pyridin-3-yl]benzamide] | +++ (>4.5) | – |
| 10 to 100 | 0.01 to 10 | 0.01 to 10 | 0.1 to 100 | COc1cc(-c2cnc3cc(OCCC4CCCN4C(C)C)ccn23)cc(OC(F)F)c1C(=O)NC1CC1 (centres unmarked) [compound 301, N-cyclopropyl-2-(difluoromethoxy)-4-[7-[2-(1-isopropylpyrrolidin-2-yl)ethoxy]imidazo[1,2-a]pyridin-3-yl]-6-methoxy-benzamide] | +++ (>4.5) | – |

| SMILES | IC50 (SIK1) [nM] | IC50 (SIK2) [nM] | IC50 (SIK3) [nM] | EC50 ([1]; 4 h) [nM] | IL-10 FCmax median [2] | EC50 [1] [nM] |
| --- | --- | --- | --- | --- | --- | --- |
| COc1cc(-c2cnc3cc(OCCCN4C5CCC4COC5)ccn23)cc(OC(F)F)c1C(=O)NC1CC1 [compound 292, N-cyclopropyl-2-(difluoromethoxy)-6-methoxy-4-[7-[3-(3-oxa-8-azabicyclo[3.2.1]octan-8-yl)propoxy]imidazo[1,2-a]pyridin-3-yl]benzamide] | 10 to 100 | 0.01 to 10 | 0.01 to 10 | – | +++ (>4.5) | 0.1 to 100 |
